Results as given in PubChem BioAssay AID608 (Sanford-Burnham Center for Chemical Genomics, 2007).
Activity calls are given as the source filed them. No rule for the calls is given here.

Target: Peptidyl-prolyl cis-trans isomerase FKBP1A (Homo sapiens) (UniProt P62942)
Assay: FKBP12 binders, biophysical, NMR detection (AID 608)
Conditions: NMR binding, purified FKBP12

Chain of Peptidyl-prolyl cis-trans isomerase FKBP1A (Homo sapiens) (P62942 whole entry, looked up): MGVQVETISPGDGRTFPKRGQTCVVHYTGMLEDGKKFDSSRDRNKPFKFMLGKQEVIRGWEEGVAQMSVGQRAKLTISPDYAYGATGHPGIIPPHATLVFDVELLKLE

| Structure (SMILES) | Kd |
| --- | --- |
| CCOc1ccc2nc(NS(C)(=O)=O)sc2c1 | > 4 mM (inactive) |
| C/C(=C\CO)CC[C@H](C)CCC[C@H](C)CCCC(C)C | > 4 mM (inactive) |
| CN1C2C[C@H](OC(=O)[C@H](CO)c3ccccc3)C[C@H]1[C@@H](O)C2 | > 4 mM (inactive) |
| O=C(COc1ccc2c(c1)OCO2)N1CCOCC1 | inactive |
| CS(=O)(=O)Nc1cc2c3c(c1)CCN3C(=O)CC2 | > 4 mM (inactive) |
| Cn1cc(Cl)c(C(=O)Nc2ccncc2)n1 | > 4 mM (inactive) |
| Cc1cc(C(=O)Nc2ccccn2)no1 | > 4 mM (inactive) |
| CC(C)(O)CC[C@@H](O)[C@](C)(O)C1CC[C@@]2(O)C3=CC(=O)C4C[C@@H](O)[C@@H](O)C[C@]4(C)C3CC[C@]12C (some centres undefined) | > 4 mM (inactive) |
| COC(=O)c1cc(-c2c(C)nn(-c3ccccc3)c2C)n[nH]1 | > 4 mM (inactive) |
| O=c1c2ccccc2oc2ccc(O)cc12 | > 4 mM (inactive) |
| CCC(CO)NC(=O)c1snnc1C (centres undefined) | > 4 mM (inactive) |
| O=C(Nc1nncs1)c1c(F)cccc1F | > 4 mM (inactive) |
| Nc1c(S(=O)(=O)c2ccccc2)csc1C(=O)O | > 4 mM (inactive) |
| Fc1ccc(CN2CCCNCC2)cc1 | > 4 mM (inactive) |
| COc1cc(C(=S)N2CCOCC2)ccc1O | > 4 mM (inactive) |
| Nc1cc(=O)[nH]c(=O)n1-c1ccccc1 | > 4 mM (inactive) |
| O=C(Cc1cccs1)N1CCOCC1 | > 4 mM (inactive) |
| Cc1cc(NC(=O)NCCCSc2nncn2C)no1 | > 4 mM (inactive) |
| C=C(C)[C@H]1Cc2c(ccc3c2O[C@@H]2COc4cc(OC)c(OC)cc4[C@@H]2C3=O)O1 | > 4 mM (inactive) |
| COc1cc(N)ncn1 | > 4 mM (inactive) |
| COC(=O)c1ccc2nccnc2c1 | > 4 mM (inactive) |
| OCC1CN(Cc2ccccc2)CCO1 (centres undefined) | > 4 mM (inactive) |
| CC(=O)NC1=NN(c2ccccc2)C(=O)C1 | > 4 mM (inactive) |

| Structure (SMILES) | Kd |
| --- | --- |
| CN1CCC(N2CCOCC2)CC1 | > 4 mM (inactive) |
| c1ccc2[nH]c(CCn3cncn3)nc2c1 | > 4 mM (inactive) |
| CNc1nc(OC)nc(N2CCOCC2)n1 | > 4 mM (inactive) |
| O=C(O)CCSc1nc2ccccc2s1 | > 4 mM (inactive) |
| Cc1ccc(S(=O)(=O)CC(=O)N2CCOCC2)cc1 | 0.095 mM |
| CC(=O)NC(=S)Nc1ccccc1N1CCOCC1 | > 4 mM (inactive) |
| O=C(NC1CSCC1O)c1ccccc1 (centres undefined) | > 4 mM (inactive) |
| c1ccc(C[N+]23CCN(CC2)c2ccccc23)cc1 | > 4 mM (inactive) |
| Nc1ncnc2c1ncn2[C@@H]1O[C@H](CO)[C@@H](O)[C@H]1O | > 4 mM (inactive) |
| CN1CCC(N(C)Cc2cccnc2)CC1 | > 4 mM (inactive) |
| CC1(C)C2CC(=O)[C@]3(C)C(CC[C@@]4(C)[C@H](c5ccoc5)OC(=O)C5OC543)[C@@]2(C)[C@@H](O)C[C@H]1O (some centres undefined) | > 4 mM (inactive) |
| Cc1ccc(-n2[nH]c(C)cc2=O)cc1 | > 4 mM (inactive) |
| COc1ccc2c(c1OC)OC[C@@H](c1ccc(OC)c(OC)c1OC)C2 | > 4 mM (inactive) |
| Cc1ccccc1NC(=O)/C=C\C(N)=O | > 4 mM (inactive) |
| COc1ccccc1NC(=O)c1snnc1C | > 4 mM (inactive) |
| CNC(C)[C@H](O)c1ccccc1 (some centres undefined) | > 4 mM (inactive) |
| Cn1ccc(NC(=S)Nc2cccc([N+](=O)[O-])c2)n1 | > 4 mM (inactive) |
| Nc1ncnc(NCc2cccnc2)c1[N+](=O)[O-] | > 4 mM (inactive) |
| CN(C)c1ccc2c(=O)[nH][nH]c(=O)c2c1 | > 4 mM (inactive) |
| CSc1nc(C)cc(Oc2ccc(=O)n(C)n2)n1 | > 4 mM (inactive) |
| Nc1c(Nc2ccccc2)c2ccccc2oc1=O | > 4 mM (inactive) |
| Cc1cc(SCC(=O)c2ccccc2)nc(=O)[nH]1 | > 4 mM (inactive) |
| CCCCCCCCCCCCCCC(C(=O)O)C(O)(CC(=O)OC)C(=O)O (centres undefined) | > 4 mM (inactive) |

| Structure (SMILES) | Kd |
| --- | --- |
| O=C(O)C(Cc1cnc[nH]1)N1C(=O)c2ccccc2C1=O (centres undefined) | > 4 mM (inactive) |
| Nc1ccc(Cc2ccc(N)cc2)cc1 | > 4 mM (inactive) |
| COc1c2c(c(CC=C(C)C)c3oc(=O)c(-c4ccc(O)cc4)c(O)c13)OC(C)(C)C=C2 | > 4 mM (inactive) |
| CCN1C[C@@]2(COC)C3[C@@H](OC)[C@H]4[C@@H]1[C@]3(C(OC)C[C@H]2O)C1C[C@@]2(O)[C@H](OC(=O)c3ccccc3)C1[C@]4(OC(C)=O)[C@@H](O)[C@@H]2OC (some centres undefined) | > 4 mM (inactive) |
| O=C(O)CCn1c(=O)oc2ccccc21 | > 4 mM (inactive) |
| CC(=O)Nc1cccc(-c2n[nH]c(=S)n2C)c1 | > 4 mM (inactive) |
| O=C(NCc1ccccc1Cl)c1cnn2cccnc12 | > 4 mM (inactive) |
| NC(=O)c1ccccc1N=Cc1ccco1 | > 4 mM (inactive) |
| O=C(O)CNS(=O)(=O)c1cccs1 | > 4 mM (inactive) |
| Nc1cc(=O)[nH]c(SCC(=O)NCc2ccccc2)n1 | > 4 mM (inactive) |
| Cn1c(=O)[nH]c(=O)c2c1ncn2CCN1CCCCC1 | > 4 mM (inactive) |
| CC(=O)c1ccc(NC(=S)N2CCC(O)CC2)cc1 | > 4 mM (inactive) |
| CCN1CCC(=NO)CC1 | > 4 mM (inactive) |
| OCC1Cc2ccccc2N1 (centres undefined) | > 4 mM (inactive) |
| CC1(NC(=O)NCc2ccccc2)CCS(=O)(=O)C1 (centres undefined) | > 4 mM (inactive) |
| C[C@@H]1CC[C@@]2(OC1)O[C@H]1CC3C4CC[C@H]5C[C@@H](O)CC[C@]5(C)C4CC[C@]3(C)[C@H]1[C@@H]2C (some centres undefined) | > 4 mM (inactive) |
| CC(=O)NC12CC3CC(CC(O)(C3)C1)C2 | > 4 mM (inactive) |
| O=C(O[C@@H]1Cc2c(O)cc(O)cc2O[C@@H]1c1cc(O)c(O)c(O)c1-c1c([C@H]2Oc3cc(O)cc(O)c3C[C@H]2O)cc(O)c(O)c1O)c1cc(O)c(O)c(O)c1 | > 4 mM (inactive) |
| C[C@H]1O[C@@H](O[C@H]2[C@@H](O)C[C@H](O[C@H]3[C@@H](O)C[C@H](O[C@H]4CC[C@]5(C)C6CC[C@]7(C)[C@@H](C8=CC(=O)OC8)CC[C@]7(O)C6CC[C@@H]5C4)O[C@@H]3C)O[C@@H]2C)C[C@H](O)[C@@H]1O (some centres undefined) | > 4 mM (inactive) |
| COc1cccc(Oc2ccc(N)cc2)c1 | > 4 mM (inactive) |
| CCOC(=O)c1cc(C)n(C)n1 | > 4 mM (inactive) |
| O=C1NC(=O)C(Cc2ccccc2)C(=O)N1 | > 4 mM (inactive) |
| Cc1ccc(CN2CCN(C(=O)C3CCC3)CC2)cc1 | > 4 mM (inactive) |

| Structure (SMILES) | Kd |
| --- | --- |
| Nc1nc(SCc2ccc3c(c2)OCO3)n[nH]1 | > 4 mM (inactive) |
| CCN1CCC(NC2CCC(O)CC2)CC1 (centres undefined) | > 4 mM (inactive) |
| NC(=O)C(=O)Nc1nc(-c2ccccc2)cs1 | > 4 mM (inactive) |
| O=C(Nc1cccnc1)Nc1ccc2c(c1)OCO2 | > 4 mM (inactive) |
| COC1=CC(C)[C@@H]2C[C@H]3OC(=O)C[C@H]4C(C)=C(OC)C(=O)C([C@@]34C)[C@@]2(C)C1=O (some centres undefined) | > 4 mM (inactive) |
| NC(=O)C1CCN(S(=O)(=O)c2ccccc2)CC1 | > 4 mM (inactive) |
| CS(=O)(=O)N1CCN(c2ccccc2F)CC1 | > 4 mM (inactive) |
| Cc1cc(C)c(C(N)=O)c(=S)[nH]1 | > 4 mM (inactive) |
| Cn1nnc2cc(C(=O)O)ccc21 | > 4 mM (inactive) |
| CC(=O)NC(=S)Nc1ccccc1C(N)=O | > 4 mM (inactive) |
| CN1C(=O)CC(=O)N(C)c2ccccc21 | > 4 mM (inactive) |
| Cc1ccc(/C=C/C(=O)O)cc1S(=O)(=O)NCCO | > 4 mM (inactive) |
| c1ccc(-n2ncc3c(NCc4ccco4)ncnc32)cc1 | > 4 mM (inactive) |
| O=C1CN2C(=N1)N(Cc1ccccc1)c1ccccc12 | > 4 mM (inactive) |
| CC12CCC3C(CC3(C)C)C(C)(CCC1=O)O2 (centres undefined) | > 4 mM (inactive) |
| COc1cc(C(C)=O)ccc1OC(=O)N1CCOCC1 | > 4 mM (inactive) |
| O=C1CSC2(CN3CCC2CC3)N1 (centres undefined) | > 4 mM (inactive) |
| Cn1c(=O)n(-c2cccc(Cl)c2)c(=O)n1C | > 4 mM (inactive) |
| CNC[C@@H](O)c1ccc(O)c(O)c1 | > 4 mM (inactive) |
| NC(=S)NC1CCS(=O)(=O)C1 (centres undefined) | > 4 mM (inactive) |
| O=C(CSc1cccc2cccnc12)N1CCOCC1 | inactive |
| Cc1ccc(NC(=O)C2CCN(S(C)(=O)=O)CC2)cc1 | > 4 mM (inactive) |
| COc1ccc(-c2coc3c(OC)c(OC)cc(O)c3c2=O)cc1 | > 4 mM (inactive) |

| Structure (SMILES) | Kd |
| --- | --- |
| OC[C@@H]1CCCN2CCCC[C@H]12 | > 4 mM (inactive) |
| CC(=O)CC1CCCCN1 (centres undefined) | > 4 mM (inactive) |
| Cc1c(N=CN2CCOCC2)c(=O)n(C)c(=O)n1C | > 4 mM (inactive) |
| C/C=C1\[C@H]2C=C(C)C[C@]1(N)c1ccc(=O)[nH]c1C2 | > 4 mM (inactive) |
| C[C@H](CCC(=O)O)[C@H]1CCC2C3C(CC[C@@]21C)[C@@]1(C)CC[C@@H](O)C[C@H]1C[C@@H]3O (some centres undefined) | > 4 mM (inactive) |
| Nc1ncnc2nc(SCCN3CCCCC3)[nH]c12 | > 4 mM (inactive) |
| CC(C)(C)c1cc(N)n[nH]1 | > 4 mM (inactive) |
| O=C(O)c1cccc(O)c1O | > 4 mM (inactive) |
| O=C(Cn1c(-c2cscn2)nc2ccccc21)Nc1ccccc1F | > 13.6 mM (inactive) |
| c1cncc(-c2nnc(-c3cccnc3)nn2)c1 | > 4 mM (inactive) |
| NC1CCN(Cc2ccccc2)CC1 | > 4 mM (inactive) |
| O=C1NC(=O)C(=Cc2ccccc2)C(=O)N1 | > 4 mM (inactive) |
| Cc1cc2c(N)cccc2nn1 | > 4 mM (inactive) |
| CC(CC(O)C1OC1(C)C)[C@@H]1CCC2(C)C3=CCC4C(C)(C)C(=O)CCC4(C)C3CC[C@@]12C (some centres undefined) | > 4 mM (inactive) |
| Cc1ccc(S(=O)(=O)/N=C2\NC(=O)CS2)cc1 | > 4 mM (inactive) |
| COC(=O)c1ccc(Cl)c(NC(C)=O)c1 | > 4 mM (inactive) |
| CN1CCN(C(=O)c2ccccc2C(=O)O)CC1 | > 4 mM (inactive) |
| CCOc1ccc(-c2c(=O)n(O)c3ccccc3[n+]2[O-])cc1 | > 4 mM (inactive) |
| c1cnc(N2CCNCC2)nc1 | > 4 mM (inactive) |
| O=C(COc1cccc(Cl)c1)N1CCOCC1 | inactive |
| O=c1[nH]c(=S)c2c(n1-c1ccccc1)CCC2 | > 4 mM (inactive) |
| O=C1CCCCCN1CO | > 4 mM (inactive) |
